# What was measured:
# [1] = test system: DT22 triple negative human breast tumor xenografts; test: DT22 triple negative breast tumor xenografts in NSG mice; type: in vivo, mouse; details: for Expression of FOXM1-regulated genes in tumors: q-PCR at end of treatment
# Method: In vivo breast cancer xenograft studies For examination of the growth of triple-negative DT22 breast tumors, intact female NOD/SCID-gamma (NSG) mice were used. DT-22 cells (1×10^6 cells/mouse) were injected s.c. into the right axial mammary gland. Mice received s.c. injection or oral gavage daily or every second or third day, as indicated, with vehicle or FOXM1 inhibitor compound, and tumor growth was monitored over time.
# [2] = test system: FOXM1 cistrome genes in MDA-MB-231 cells; test: RNA-Seq Gene Set Enrichment Analysis, MDA-MB-231; type: cell-based, human; details: NB-73 […] 24 h, siFOXM1 25 nM 72 h
# Method: RNA-Seq transcriptional profiling and gene ontology analysis For gene expression analysis, total RNA was extracted from cells using Trizol reagent and further cleaned using the Turbo DNase and RNAqueous kits (ThermoFisher). Cells were treated with Veh (0.1% EtOH), or with the compounds indicated for 9 h or 24 h. Once the sample quality and replicate reproducibility were verified, samples from each group were subjected to sequencing. RNA at a concentration of 100 ng/μL in nuclease-free water was used for library construction. cDNA libraries were prepared with the mRNA-TruSeq Kit (Illumina, Inc.). In brief, the poly-A containing mRNA was purified from total RNA, the RNA was fragmented, double-stranded cDNA was generated from fragmented RNA, and adapters were ligated to the ends.
# The paired-end read data from the HiSeq 4000 were processed and analyzed through a series of steps. […] Reads were trimmed of adapters and low expression data using Trimmomatic version 0.38. The star alignment tool version 2.5.3a was used to align the sequenced reads to the GRCh37 human genome from Ensembl. Gene counts were calculated using subread version 1.5.2. […]
# Gene Set Enrichment Analysis (GSEA) was used for examination of the genome-wide expression profiles. Overrepresented GO biological processes were determined by the web-based DAVID Bioinformatics Resources database.
# [3] = test system: FOXM1 target genes in DT22 cells; test: FOXM1 target gene expression by qRT-PCR, DT22; type: cell-based, human; details: DT22, 24 h, at IC50 concentration
# Description: RNA was extracted from cells and expression of different genes was monitored by qRT-PCR. Assays were run in triplicate. Values are mean±SEM. *, p<0.05; **, p<0.01; ***, p<0.001. RNA isolation and real-time PCR Total RNA was isolated using TRIzol (Invitrogen) and reverse transcribed using […] reverse transcriptase (New England BioLabs). […] Relative mRNA levels of genes were normalized to the housekeeping gene 36B4, and fold change calculated relative to the vehicle treated samples. Results are the average±SD from at least two independent experiments carried out in triplicate. Primer sequences for the genes studied were obtained from the Harvard Primer Bank. Sequences are available on their website.
# [4] = Pharmacokinetic studies in mice after single s.c. or oral dose
# [5] = test system: FOXM1 target genes in MCF7 cells; test: FOXM1 target gene expression by qRT-PCR, MCF7; type: cell-based, human; details: MCF7, 24 h, at IC50 concentration
# Method: RNA was extracted from cells and expression of different genes was monitored by qRT-PCR. Assays were run in triplicate. Values are mean±SEM. *, p<0.05; **, p<0.01; ***, p<0.001. RNA isolation and real-time PCR Total RNA was isolated using TRIzol (Invitrogen) and reverse transcribed using […] reverse transcriptase (New England BioLabs). Real-time PCR was performed using SYBRgreen PCR Master Mix (Roche) as described (Bergamaschi et al., Breast Cancer Res., 2014, 16:436). Relative mRNA levels of genes were normalized to the housekeeping gene 36B4, and fold change calculated relative to the vehicle treated samples. Results are the average±SD from at least two independent experiments carried out in triplicate. Primer sequences for the genes studied were obtained from the Harvard Primer Bank. Sequences are available on their website.
# [6] = test system: tamoxifen-resistant MCF7 breast cancer cells; test: Proliferation of tamoxifen-resistant MCF7 cells; type: cell-based, human; details: 6 days
# Method: Values are mean±SD of three separate assays. Cell proliferation assay WST-1 assay (Roche, Basel, Switzerland) was used to quantify cell viability as described (Gong et al., Mol. Cell Endocrinol., 2016, 437:190-200). Absorbance was measured at 450 nm using a VICTOR X5 PerkinElmer 2030 Multilabel Plate Reader. All assays were performed in triplicate.
compound,measurement,setting,value
"C[N+]1(CCCCCCOc2ccc(C(c3ccc(OCCCCCC[N+]4(C)CCCCCC4)cc3)=C3C4C[C@H]5C[C@@H](C4)C[C@H]3C5)cc2)CCCCCC1 [NB-73, 1,1′-((((((5r,7r)-adamantan-2-ylidene)methylene)bis(4,1-phenylene))bis(oxy))bis(hexane-6,1-diyl))bis(1-methylazepan-1-ium) diiodide]",Growth of DT22 tumor xenografts,"[1]; 5 mg/kg s.c. daily, every other day from day 21",reduced tumor growth
same,Expression of FOXM1-regulated genes in tumors,[1]; 5 mg/kg s.c.,significant reduction
same,Growth of DT22 tumor xenografts,"[1]; 10 mg/kg s.c. daily, every other day from day 21",even more markedly suppressed growth
same,Expression of FOXM1-regulated genes in tumors,[1]; 10 mg/kg s.c.,greatly reduced
same,"Tumor growth in vivo, low doses",[1]; 5 or 10 mg/kg s.c. every second or third day,greatly suppress tumor growth
same,Growth of DT22 tumor xenografts,"[1]; s.c., 20 mg/kg every other day for first 10 days then 10 mg/kg every other day",greatly suppress tumor growth
same,GSEA enrichment against FOXM1 target gene sets,[2],negative enrichment scores
same,Expression of ATF3 (gene suppressed by FOXM1),[3],increased
same,"Expression of FOXM1 stimulated target genes (FOXM1C, AURKB, CCNB1, PLK1)",[3],significantly reduced
same,half-life,"[4]; female, CD-1, mouse, plasma, sc",25 to 40 h
same,half-life,"[4]; female, CD-1, mouse, plasma, sc, 60 mg/kg",170 h
same,AUC(0-t),"[4]; female, CD-1, mouse, plasma, sc, 60 mg/kg, PK s.c. AUC0-48, mice, 60 mg/kg s.c.",190 µM·h
same,PK p.o. AUC0-48,"[4]; mice, 60 mg/kg p.o.",too low to measure
same,Blood levels after oral administration,"[4]; mice, oral, doses of FIGS. 6A-6B",very low levels
same,Blood levels after s.c. injection,"[4]; mice, s.c., doses of FIGS. 6A-6B",very high blood levels
same,Expression of ATF3 (gene suppressed by FOXM1),[5],increased
same,"Expression of FOXM1 stimulated target genes (FOXM1C, AURKB, CCNB1, PLK1)",[5],significantly reduced
same,Effect on proliferation of tamoxifen-resistant MCF7 cells,[6],effectively suppressed

# Source: US12187662B2, “FOXM1 inhibitor compositions and methods of using the same” (The Board of Trustees of the University of Illinois, priority 2018, dated 2025)
